In patent US5576208A, “Antisense oligonucleotide inhibition of the RAS gene” (priority 1994, dated 1996):
“Also recorded” adds a separate entry of the source.

Legend:
[1] = tested on: 25-base oligoribonucleotide of activated H-ras mRNA, mammalian RNase H; assay: RNase H cleavage in vitro with HeLa nuclear extracts; assay type: biochemical, human; details: HeLa nuclear extracts as source of RNase H
Experimental: RNase H assays were performed using a chemically synthesized 25-base oligoribonucleotide corresponding to bases +23 to +47 of activated (codon 12, G→U) H-ras mRNA. The 5' end-labeled RNA was used at a concentration of 20 nM and incubated with a 10-fold molar excess of antisense oligonucleotide in a reaction containing 20 mM tris-Cl, pH 7.5, 100 mM KCl, 10 mM MgCl2, 1 mM dithiothreitol, 10 μg tRNA and 4 U RNasin in a final volume of 10 μl. The reaction components were preannealed at 37° C. for 15 Minutes then allowed to cool slowly to room temperature. HeLa cell nuclear extracts were used as a source of mammalian RNase H. Reactions were initiated by addition of 2 μg of nuclear extract (5 μl) and reactions were allowed to proceed for 10 Minutes at 37° C. Reactions were stopped by phenol/chloroform extraction and RNA components were precipitated with ethanol. Equal CPMs were loaded on a 20% polyacrylamide gel containing 7M urea and RNA cleavage products were resolved and visualized by electrophoresis followed by autoradiography. Quantitation of cleavage products was performed using a Molecular Dynamics Densitometer.

[2] = tested on: 47-mer H-ras RNA hairpin target; assay: Gel shift assay
Experimental: The structured ras target transcript, a 47-nucleotide hairpin containing the mutated codon 12, was prepared and mapped as described in Lima et al., Biochemistry 1991, 31, 12055-12061. Hybridization reactions were prepared in 20 μl containing 100 mM sodium, 10 mM phosphate, 0.1 mM EDTA, 100 CPM of T7-generated RNA (approximately 10 pM), and antisense oligonucleotide ranging in concentration from 1 pM to 10 μM. Reactions were incubated 24 hours at 37° C. Following hybridization, loading buffer was added to the reactions and reaction products were resolved on 20% native polyacrylamide gels, prepared using 45 mM tris-borate and 1 mM MgCl2 (TBM). Electrophoresis was carried out at 10° C. and gels were quantitated using a Molecular Dynamics Phosphorimager.

[3] = tested on: full length H-ras mRNA (activated, codon 12); assay: ras transactivation reporter gene system; details: Table 5, antisense activity against H-ras; listed as Deoxy
[4] = tested on: ras mRNA in T24 cells (activated codon 12); assay: Northern blot analysis of ras expression in T24 cells; assay type: cell-based, human; parameters: inhibition of ras mRNA: concentration or dose not given beside the values
Experimental: The human urinary bladder cancer cell line T24 was obtained from the American Type Culture Collection (Rockville Md.). Cells were grown in McCoy's 5 A medium with L-glutamine (Gibco BRL, Gaithersburg Md.), supplemented with 10% heat-inactivated fetal calf serum and 50 U/ml each of penicillin and streptomycin. Cells were seeded on 100 Mm plates. When they reached 70% confluency, they were treated with oligonucleotide. Plates were washed with 10 ml prewarmed PBS and 5 ml of Opti-MEM reduced-serum medium containing 2.5 μl DOTMA. Oligonucleotide was then added to the desired concentration. After 4 hours of treatment, the medium was replaced with McCoy's medium. Cells were harvested 48 hours after oligonucleotide treatment and RNA was isolated using a standard CsCl purification method.
(§1) Northern hybridization: 10 μg of each RNA was electrophoresed on a 1.2% agarose/formaldehyde gel and transferred overnight to GeneBind 45 nylon membrane (Pharmacia LKB, Piscataway, N.J.) using standard methods. […] RNA was UV-crosslinked to the membrane. Double-stranded ^32 P-labeled probes were synthesized using the Prime a Gene labeling kit (Promega, Madison Wis.). The ras probe was a SalI-NheI fragment of a cDNA clone of the activated (mutant) H-ras mRNA having a GGC-to-GTC mutation at codon-12. The control probe was G3PDH. Blots were prehybridized for 15 Minutes at 68° C. with the QuickHyb hybridization solution (Stratagene, La Jolla, Calif.). The heat-denatured radioactive probe (2.5×10^6 counts/2 ml hybridization solution) mixed with 100 μl of 10 Mg/ml salmon sperm DNA was added and the membrane was hybridized for 1 hour at 68° C. The blots were washed twice for 15 minutes at room temperature in 2× SSC/0.1% SDS and once for 30 minutes at 60° C. with 0.1XSSC/0.1%SDS. Blots were autoradiographed and the intensity of signal was quantitated using an ImageQuant PhosphorImager (Molecular Dynamics, Sunnyvale, Calif.). Northern blots were first hybridized with the ras probe, then stripped by boiling for 15 Minutes in 0.1× SSC/0.1%SDS and rehybridized with the control G3PDH probe to check for correct sample loading.

[5] = tested on: 25-mer oligoribonucleotide complement (H-ras codon 12 RNA target); assay: Melting curves, hybridization to 25-mer RNA target; assay type: binding, human
Experimental: Absorbance vs temperature curves were measured at 260 nm using a Gilford 260 spectrophotometer interfaced to an IBM PC computer and a Gilford Response II spectrophotometer. The buffer contained 100 mM Na^+, 10 mM phosphate and 0.1 mM EDTA, pH 7. Oligonucleotide concentration was 4 μM each strand determined from the absorbance at 85° C. and extinction coefficients calculated according to Puglisi and Tinoco, Methods in Enzymol. 1989, 180, 304-325. Tm values, free energies of duplex formation and association constants were obtained from fits of data to a two state model with linear sloping baselines. Petersheim, M. and Turner, D.H., Biochemistry 1983, 22, 256-263. Reported parameters are averages of at least three experiments. For some oligonucleotides, free energies of duplex formation were also obtained from plots of Tm^-1 vs log10 (concentration). Borer, P.N., Dengler, B., Tinoco, I., Jr., and Uhlenbeck, O.C., J. Mol. Biol., 1974, 86, 843-853.

[6] = tested on: ras mRNA in HeLa cells (wild-type H-ras codon 12); assay: Northern blot analysis of ras expression in HeLa cells; assay type: cell-based, human
Experimental: HeLa cells were maintained as monolayers on 6-well plates in Dulbecco's Modified Eagle's medium (DMEM) supplemented with 10% fetal bovine serum and 100 U/ml penicillin. Treatment with oligonucleotide and isolation of RNA were essentially as described above for T24 cells.
as §1, with “Northern blots were first hybridized with the ras probe, then stripped by boiling for 15 Minutes in 0.1× SSC/0.1%SDS and rehybridized with the control G3PDH probe to check for correct sample loading.” left out

[7] = tested on: mutant (activated, codon 12) H-ras RNA, ras-luciferase fusion reporter in HeLa cells; assay: ras-luciferase reporter gene assay, mutant form
[8] = HeLa cell extract, 37° C.
Experimental: Oligonucleotides were incubated in crude HeLa cellular extracts at 37° C. to determine their sensitivity to nuclease degradation as described in Dignam et al., Nucleic Acids Res. 1983, 11, 1475-1489.

T24 cancer cells = assay: Inhibition of proliferation of cancer cells; assay type: cell-based, human
Experimental: Cells were seeded on 60 mm plates and were treated with oligonucleotide in the presence of DOTMA when they reached 70% confluency. Time course experiment: On day 1, cells were treated with a single dose of oligonucleotide at a final concentration of 100nM. The growth medium was changed once on day 3 and cells were counted every day for 5 days, using a counting chamber.

[9] = tested on: normal (wild type) H-ras RNA, ras-luciferase fusion reporter in HeLa cells; assay: ras-luciferase reporter gene assay, normal form; details: read-out: IC50, inhibition of ras-luciferase activity; normal (unmutated) ras-luciferase, dose-response

CCACACCGACGGCGCCC (chemistry not given here) [compound 4122]
ability to direct RNase H cleavage [1]: no cleavage was observed | binding to the hairpin target ([2]; listed as full 2'--O--methyl 17-mer): formed the most stable duplex

CCACACCGACGGCGCCC [2570] (phosphorothioate, further chemistry not given here) [compound 2570]
IC50 [3]: 150 nM | inhibition of ras expression [4]: inhibited ras expression in T24 cells; also recorded: decreased ras mRNA levels in T24 cells | inhibition of ras mRNA [4]: 82% | Tm ([5]; Table 5, 2'-modified 17-mer with 7-deoxy gap, 25-mer oligoribonucleotide complement): 64.2 °C | ΔΔG°37 ([5]; free energy difference between hybridization to mutant target and to wild type target): +1.8 kcal/mole | binding to the hairpin target ([2]; listed as full deoxy 17-mer): formed the least stable duplex | inhibition of ras expression [6]: did not inhibit ras expression in HeLa cells | selectivity for inhibition of mutant ras-luciferase relative to wild type ([7]; 100 nM oligonucleotide): approximately 4 fold | selectivity toward the mutant form of ras-luciferase as compared to the normal form ([7]; at low concentrations): approximately threefold | selectivity, mutant over wild type ([7]; dose-dependent experiment, FIG. 8): 5 fold | IC50 ([7]; read-out: IC50, inhibition of ras-luciferase activity, mutant ras-luciferase, dose-response): ~100 nM | selectivity toward the mutated form of ras-luciferase ([7]; single dose 0.5 μM): displayed selectivity toward the mutated form of ras-luciferase | degradation [8]: no degradation after 5 hours | inhibition of T24 cell proliferation relative to HeLa cells (T24 cancer cells; 100 nM oligonucleotide concentration): four times as severe | inhibition of cell proliferation (T24 cancer cells; T24 cells): 61% | IC50 (T24 cancer cells; T24 cells, dose-response, counted 3 days later, read-out: IC50, cell proliferation): 98 nM | IC50 [9]: ~250 nM
